Measured values: patent US12409176B2, “Methods of treating acute depression” (INTRA-CELLULAR THERAPIES, INC., priority 2018, dated 2025)

Columns and labels:
[1] = Antidepressant-like behaviors in rodents; format: in vivo
[2] = molecular target: serotonin transporter (SERT) (Homo sapiens, UniProt P31645); test: Comparative serotonin transporter (SERT) inhibition among antipsychotic agents (FIG. 3); format: biochemical; conditions: FIG. 3, compared among antipsychotic drugs
[3] = system: hippocampal gene expression; test: NanoString Mouse Neuropathology panel, hippocampal mRNA after LPS; format: in vivo, mice; conditions: Lumateperone/LPS compared to vehicle/LPS, 3 mg/kg i.p., 2 hours
Experimental: Immediately after this injection, the mice are injected with either LPS (500 μg/kg diluted in 0.9% saline) or with 0.9% saline. After 2 hours, the mice are sacrificed, and hippocampal mRNA is obtained, as described in Example 1. Hippocampal RNA concentration and integrity are evaluated using an Agilent 2100 Bioanalyzer. Sample preparation, hybridization and detection are carried out according to NanoString manufacturer's instructions (NanoString technologies, WA). RNA (100 ng) expression profiling is performed using the nCounter NanoString Mouse Neuropathology panel, and data are analyzed using the nSolver software to produce and compare direct counts of mRNA. […] The neuropathology panel was developed to include genes of relevance for research in models of neurodegenerative and neurological disorders, such as Alzheimer's disease, Parkinson's disease, Amyotrophic Lateral Sclerosis, Frontotemporal Dementia, and Huntington's disease. The panel includes 770 genes associated with themes of neurotransmission, neuron-glia interaction, neuroplasticity, cell structure integrity, neuroinflammation and metabolism

[4] = system: mTORC1 signaling pathway (AKT Thr308, mTOR Ser2448, P70s6 kinase Thr389); test: mTOR signaling pathway phosphoprotein levels in prefrontal cortex (FIG. 7, 8); format: in vivo, rat; conditions: adult rats; lumateperone 1 to 8 mg/kg i.p., ketamine 30 mg/kg; 60 min, 90 min or 24 hours
[5] = Safety and tolerability in humans; format: in vivo
[6] = system: AMPA receptor currents in mPFC pyramidal neurons; test: AMPA currents in mPFC slices, whole-cell patch clamp (FIG. 5, 6); format: cell-based; conditions: bath applied to rat mPFC slices, 3-100 nM, 5 min later
From the text: Combined administration of the antipsychotic, olanzapine, and the SSRI, fluoxetine, similarly induces rapid antidepressant activity in humans and animals (Tohen et al., 2010); likewise, combined application of olanzapine and fluoxetine is required to induce AMPA receptor currents in vitro.

[7] = system: serum cytokines (IL-1β, IL-6, TNF, IL-10, IFN-gamma); test: Restraint stress: serum cytokines by MSD multiplex (FIG. 2); format: in vivo, mice; conditions: pre-treatment 3 mg/kg i.p., 2 h restraint stress
Experimental: (§1) Male, C57/B16 mice (n=6-7/group) are divided into three groups—control (vehicle alone, no stress), vehicle—stress (vehicle, i.p.), or ITI-007—stress (3 mg/kg, i.p. in vehicle). For induction of stress, mice are placed in a plastic “decapicones” and placed on the bottom of a warm, clean rodent cage for a 2 h period. These plastic “decapicones” produce an acute restraint stress which triggers neuroinflammation in both hippocampal tissue and peripherally (as shown by serum). At the end of the stress exposure, mice are killed; blood is taken for serum preparation and brain tissue for analysis. Serum is prepared from blood; cytokine measures are performed using MSD multiplex analysis. Brain tissue is analyzed by qPCR for pro-inflammatory cytokine mRNA expression.

[8] = Clinical studies in acute exacerbated schizophrenia: emotional experience symptoms; conditions: 60 mg P.O. once daily, up to 28 days; patients with acute exacerbated schizophrenia; two clinical studies
[9] = system: mTORC1 signaling pathway (AKT Thr308, mTOR Ser2448, P70s6 kinase Thr389); test: mTOR signaling pathway phosphoprotein levels in prefrontal cortex (FIG. 7, 8); format: in vivo, rat; conditions: for mTOR phosphorylation (Serine 2448) / p70s6K phosphorylation (Threonine 389) / phosphorylation of AKT at thr308: rat PFC; for mTOR phosphorylation (Serine 2448) / p70s6K phosphorylation (Threonine 389): lumateperone 3 mg/kg or ketamine 30 mg/kg i.p.; for mTOR phosphorylation (Serine 2448) / phosphorylation of AKT at thr308: 1 hour and 24 hours; for p70s6K phosphorylation (Threonine 389): over the 24 hour period; for phosphorylation of AKT at thr308: one i.p. injection, lumateperone 3 mg/kg or ketamine 30 mg/kg, vs saline
Experimental: It is known that upstream and downstream effectors of the mTOR (e.g., mTORC1) signaling pathway are increased in the mPFC of rats 1 hour and 24 hours after administration of the rapid-acting antidepressant ketamine.
Pre-frontal cortical phosphorylation levels of AKT (at Threonine 308), mTOR (at Serine 2448) or P70s6 kinase (at Threonine 389) are evaluated after normalization to total protein levels for each target, at both 1 hour and 24 hours. Results are shown as the percent relative change compared to placebo (saline).

[10] = system: hippocampal cytokine mRNA (IL-1β, IL-6, TNFα, CCL2, IL-4, IL-10); test: LPS-induced stress: hippocampal cytokine mRNA by qPCR (FIG. 9, 10); format: in vivo, mice
Experimental: Male, C57/B16 mice (n=6-12/group) are divided into five groups-control (vehicle/saline), vehicle/LPS, and […] at three different doses of ITI-007. Mice are first injected i.p. with either vehicle (5% DMSO, 5% Tween, 15% PEG, 75% water) or ITI-007 at 0.3 mg/kg, 3.0 mg/kg or 8.0 mg/kg. The mice are then immediately injected s.c. with either 0.9% saline or with 500 μg/kg lipopolysaccharide (LPS) diluted in 0.9% saline. After two hours, the animals are sacrificed, and hippocampal slices are obtained and analyzed for cytokine mRNA using qPCR. The results are shown in FIG. 9, normalized to the control group using the delta ct method. […] The results are shown in FIG. 10, normalized to the control group.

[11] = system: NMDA receptor currents in mPFC pyramidal neurons; test: NMDA currents in mPFC slices, whole-cell patch clamp (FIG. 4); format: cell-based, rat
[12] = Symptoms of depression in patients with schizophrenia; format: in vivo, human
[13] = system: hippocampal pro- and anti-inflammatory cytokine expression; test: Restraint stress: hippocampal cytokine expression by qPCR (FIG. 1); format: in vivo, mice; conditions: 3 mg/kg i.p., 2 h restraint stress, not statistically significant
Experimental: as §1

[14] = cited from earlier work
[15] = system: phosphor-mTOR; conditions: single antidepressant-effective dose; prefrontal cortex and hippocampus of mice and rats; cited from earlier work
[16] = 0.3, 3.0 or 8.0 mg/kg i.p., co-injection with LPS 500 μg/kg s.c., 2 hours, FIG. 9

Chain of serotonin transporter (SERT) (P31645 whole entry, species assumed): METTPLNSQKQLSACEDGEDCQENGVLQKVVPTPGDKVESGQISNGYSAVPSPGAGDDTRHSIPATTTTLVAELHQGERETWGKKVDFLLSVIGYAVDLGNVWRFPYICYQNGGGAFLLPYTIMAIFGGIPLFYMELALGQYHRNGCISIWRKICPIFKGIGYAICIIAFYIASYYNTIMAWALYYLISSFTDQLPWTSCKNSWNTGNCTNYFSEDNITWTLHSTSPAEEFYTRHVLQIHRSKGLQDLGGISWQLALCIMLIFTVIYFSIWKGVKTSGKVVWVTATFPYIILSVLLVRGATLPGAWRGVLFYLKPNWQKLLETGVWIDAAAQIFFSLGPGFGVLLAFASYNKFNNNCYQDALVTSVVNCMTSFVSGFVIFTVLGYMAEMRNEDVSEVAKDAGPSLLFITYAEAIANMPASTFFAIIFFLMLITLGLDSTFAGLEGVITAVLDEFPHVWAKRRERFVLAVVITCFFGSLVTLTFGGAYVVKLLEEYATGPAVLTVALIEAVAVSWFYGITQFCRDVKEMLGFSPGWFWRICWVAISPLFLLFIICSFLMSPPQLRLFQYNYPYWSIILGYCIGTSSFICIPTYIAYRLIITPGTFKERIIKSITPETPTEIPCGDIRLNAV

CN1CCN2c3c(cccc31)[C@@H]1CN(CCCC(O)c3ccc(F)cc3)CC[C@@H]12 (stereo partly drawn) [IC200131]
antidepressant-like behaviors [1]: elicit antidepressant-like behaviors
SERT inhibition [2]: high SERT inhibition

CN1CCN2c3c(cccc31)[C@@H]1CN(CCCC(=O)c3ccc(F)cc3)CC[C@@H]12 [Lumateperone, 4-((6bR,10aS)-3-methyl-2,3,6b,9,10,10a-hexahydro-1H-pyrido[3′,4′:4,5]pyrrolo[1,2,3-de]quinoxalin-8(7H)-yl)-1-(4-fluorophenyl)-1-butanone]
Linear Change, down-regulated genes: Ctns, Jun, Polr2l, Usp21, Csf1, Sirt1, Atf4, Fclrls [3]: 0.80-0.85 fold
Linear Change, down-regulated genes: Hc, Osmr [3]: <0.500-fold
Linear Change, down-regulated genes: Nfe2l2, Naglu, Pla2g4b, Npas4, Nos3 [3]: 0.75-0.80-fold
Linear Change, down-regulated genes: Ptgs2, Cp, Cntf, Tnfrsf1a, Il1R1 [3]: 0.5-0.75-fold
Linear Change, up-regulated gene: Cldn5 [3]: >1.5 fold
Linear Change, up-regulated genes: Egr1, Gata2, Olig2 [3]: 1.25-1.5 fold
Linear Change, up-regulated genes: Phf21a, Islr2, Ngf, Arrb2, Homer1, Notch1, Rapgef2, Pde4d [3]: 1.1-1.25 fold
Linear Change, up-regulated genes: Syt4, Adcy9, Gabrb2, Slc8a1, Inppf5, Scn1a, Pten, Crebbp [3]: 1.0-1.1 fold
activation of the mTORC1 signaling pathway in mPFC (p-Akt thr308, p-P70S6K) [4]: rapidly activates
safety and tolerability [5]: safe and well-tolerated
AMPA currents [6]: enhanced
antidepressant-like behaviors [1]: elicit antidepressant-like behaviors
stress effects on serum IL-1ρ and IL-6 [7]: significantly attenuates
stress effects on serum TNF and IL-10 [7]: trends, but not statistically significant
symptoms of emotional experience compared to placebo [8]: significant and unexpected improvement
duration of effect on phospho-protein levels at 24 hours ([9]; compared with ketamine 30 mg/kg): longer lasting effect compared with ketamine
AKT thr308 phosphorylation effect at 24 hours versus ketamine ([9]; lumateperone 3 mg/kg vs ketamine 30 mg/kg i.p., not declining in intensity (FIG. 8)): stronger at 24 hours than for ketamine
mTOR phosphorylation (Serine 2448) [9]: Neither ketamine nor lumateperone results in a change
p70s6K phosphorylation (Threonine 389) [9]: progressively increases
phosphorylation of AKT at thr308 [9]: increase phosphorylation
hippocampal inflammatory cytokine production, delayed dosing ([10]; 3.0 mg/kg, given 30 minutes after LPS, FIG. 10): suppresses inflammatory cytokine production
hippocampal anti-inflammatory cytokine mRNA (IL-4, IL-10) [10, 16]: significantly enhanced
hippocampal pro-inflammatory cytokine mRNA (IL-1β, IL-6, TNFα, CCL2) [10, 16]: significantly attenuated
NMDA currents ([11]; bath applied to rat mPFC slices, 3-100 nM, 5 min later): enhanced
effect on NMDA and AMPA currents in the presence of the D1 receptor antagonist SCH-23390 ([11]; lumateperone 30 nM, SCH-23390 1 μM): fully blocked
SERT inhibition [2]: very high SERT inhibition
symptoms of depression [12]: improves symptoms of depression
hippocampal CCL2 and IL-10 levels [13]: elevated
hippocampal expression of pro-inflammatory cytokines by qPCR [13]: generally depressed

CNC1(c2ccccc2Cl)CCCCC1=O (stereo not drawn) [ketamine, reference compound]
activation of the mTORC1 signaling pathway in mPFC (p-Akt thr308, p-P70S6K) [4]: rapidly activates
ratings on the Hamilton Depression Rating Scale (HDRS) compared to placebo ([14]; 40-minute infusion, total dose 0.5 mg/kg, after 24 hours, Berman et al.): significantly improved ratings
onset of effects after intravenous infusion ([14]; intravenous infusion): ~4 h
persistence of effects ([14]; intravenous infusion): up to 2 weeks
onset of induction of phosphor-mTOR after administration [15]: ≤ 30 min
mTOR phosphorylation (Serine 2448) [9]: Neither ketamine nor lumateperone results in a change
p70s6K phosphorylation (Threonine 389) [9]: transiently increase
phosphorylation of AKT at thr308 [9]: increase phosphorylation
